± gives the expanded uncertainty stated by the source.
Settings: Fluid (supercritical or subcritical phases), Cylindrical cavity resonance method

C[Si]1(C)O[Si](C)(C)O[Si](C)(C)O[Si](C)(C)O1 [octamethylcyclotetrasiloxane]
Settings	speed of sound [m/s]
450 K, 38.9 kPa	110.35 ± 0.45
450 K, 46.7 kPa	109.66 ± 0.45
450 K, 57.41 kPa	108.8 ± 0.45
450 K, 62.89 kPa	108.3 ± 0.45
450 K, 69.33 kPa	107.73 ± 0.44
465 K, 31.29 kPa	113.04 ± 0.46
465 K, 32.63 kPa	112.99 ± 0.46
465 K, 36.51 kPa	112.75 ± 0.46
465 K, 40.99 kPa	112.32 ± 0.46
465 K, 46.84 kPa	111.94 ± 0.46
465 K, 47.85 kPa	111.91 ± 0.46
465 K, 49.18 kPa	111.72 ± 0.46
465 K, 57.21 kPa	111.2 ± 0.46
465 K, 58.99 kPa	110.98 ± 0.46
465 K, 61.46 kPa	110.82 ± 0.46
465 K, 68.51 kPa	110.33 ± 0.45
465 K, 70.69 kPa	110.06 ± 0.45
465 K, 73.59 kPa	109.87 ± 0.45
465 K, 74.87 kPa	109.83 ± 0.45
465 K, 77.48 kPa	109.53 ± 0.45
465 K, 81.72 kPa	109.28 ± 0.45
465 K, 87.87 kPa	108.72 ± 0.45
465 K, 92.89 kPa	108.29 ± 0.45
465 K, 97.68 kPa	107.96 ± 0.44
465 K, 101.01 kPa	107.53 ± 0.44
465 K, 105.11 kPa	107.28 ± 0.44
465 K, 106.95 kPa	107.18 ± 0.44
465 K, 111.4 kPa	106.69 ± 0.44
465 K, 116.93 kPa	106.3 ± 0.44
465 K, 121.67 kPa	105.76 ± 0.43
465 K, 123.48 kPa	105.66 ± 0.43
480 K, 42.7 kPa	114.02 ± 0.47
480 K, 54.67 kPa	113.2 ± 0.46
480 K, 65.08 kPa	112.48 ± 0.46
480 K, 71.3 kPa	112.04 ± 0.46
480 K, 85.5 kPa	111.07 ± 0.46
480 K, 92.46 kPa	110.5 ± 0.45
480 K, 109.21 kPa	109.24 ± 0.45
480 K, 118.88 kPa	108.49 ± 0.45
480 K, 129.21 kPa	107.67 ± 0.44
480 K, 140.39 kPa	106.77 ± 0.44
480 K, 152.36 kPa	105.77 ± 0.43
480 K, 165.42 kPa	104.64 ± 0.43
495 K, 27.45 kPa	117.14 ± 0.48
495 K, 36.2 kPa	116.66 ± 0.48
495 K, 47.54 kPa	115.98 ± 0.47
495 K, 143.41 kPa	109.74 ± 0.45
495 K, 159.7 kPa	108.43 ± 0.45
495 K, 160.4 kPa	108.39 ± 0.45
495 K, 174.53 kPa	107.35 ± 0.44
495 K, 186.64 kPa	106.44 ± 0.44
495 K, 198.61 kPa	105.49 ± 0.43
495 K, 224.52 kPa	103.41 ± 0.43

C[Si]1(C)O[Si](C)(C)O[Si](C)(C)O[Si](C)(C)O[Si](C)(C)O1 [decamethylcyclopentasiloxane]
Settings	speed of sound [m/s]
485 K, 35.39 kPa	101.91 ± 0.52
485 K, 43.63 kPa	101.14 ± 0.52
485 K, 49.43 kPa	100.67 ± 0.51
485 K, 55.24 kPa	100.36 ± 0.51
485 K, 63.6 kPa	99.2 ± 0.51
485 K, 64.42 kPa	99.13 ± 0.51
485 K, 74.85 kPa	98.38 ± 0.5
485 K, 82.92 kPa	97.28 ± 0.5
485 K, 85.12 kPa	97.17 ± 0.5
500 K, 22.13 kPa	104.94 ± 0.53
500 K, 22.48 kPa	104.92 ± 0.53
500 K, 26.3 kPa	104.68 ± 0.53
500 K, 31.33 kPa	104.22 ± 0.53
500 K, 32.27 kPa	104.14 ± 0.53
500 K, 33.93 kPa	103.96 ± 0.53
500 K, 39.9 kPa	103.53 ± 0.53
500 K, 42.7 kPa	103.27 ± 0.53
500 K, 47.88 kPa	102.87 ± 0.52
500 K, 51.58 kPa	102.58 ± 0.52
500 K, 55.42 kPa	102.2 ± 0.52
500 K, 64.64 kPa	101.5 ± 0.52
500 K, 64.96 kPa	101.44 ± 0.52
500 K, 73.64 kPa	100.81 ± 0.51
500 K, 74.95 kPa	100.63 ± 0.51
500 K, 78.98 kPa	100.22 ± 0.51
500 K, 85.9 kPa	99.5 ± 0.51
500 K, 95.37 kPa	98.56 ± 0.5
500 K, 105.42 kPa	97.6 ± 0.5
500 K, 116.6 kPa	96.56 ± 0.49
510 K, 34.55 kPa	105.2 ± 0.54
510 K, 43.26 kPa	104.68 ± 0.53
510 K, 51.27 kPa	104.86 ± 0.53
510 K, 57.1 kPa	103.49 ± 0.53
510 K, 62.78 kPa	103.98 ± 0.53
510 K, 72.53 kPa	102.37 ± 0.52
510 K, 82.51 kPa	101.58 ± 0.52
510 K, 89.89 kPa	100.87 ± 0.52
510 K, 92.75 kPa	100.75 ± 0.51
510 K, 103.28 kPa	99.89 ± 0.51
510 K, 110.69 kPa	99.98 ± 0.51
